Reference: ChEMBL document CHEMBL5308504, “Tm Shift (DSF) assay results for EUbOPEN Chemogenomics Library” (2023)

Assays:
[1] = target: T1, Peregrin (Homo sapiens) (UniProt P55201); settings: Compound concentration 20.0 uM, Protein concentration 2.0 uM, Result type QC Liability
T1 sequence (whole entry): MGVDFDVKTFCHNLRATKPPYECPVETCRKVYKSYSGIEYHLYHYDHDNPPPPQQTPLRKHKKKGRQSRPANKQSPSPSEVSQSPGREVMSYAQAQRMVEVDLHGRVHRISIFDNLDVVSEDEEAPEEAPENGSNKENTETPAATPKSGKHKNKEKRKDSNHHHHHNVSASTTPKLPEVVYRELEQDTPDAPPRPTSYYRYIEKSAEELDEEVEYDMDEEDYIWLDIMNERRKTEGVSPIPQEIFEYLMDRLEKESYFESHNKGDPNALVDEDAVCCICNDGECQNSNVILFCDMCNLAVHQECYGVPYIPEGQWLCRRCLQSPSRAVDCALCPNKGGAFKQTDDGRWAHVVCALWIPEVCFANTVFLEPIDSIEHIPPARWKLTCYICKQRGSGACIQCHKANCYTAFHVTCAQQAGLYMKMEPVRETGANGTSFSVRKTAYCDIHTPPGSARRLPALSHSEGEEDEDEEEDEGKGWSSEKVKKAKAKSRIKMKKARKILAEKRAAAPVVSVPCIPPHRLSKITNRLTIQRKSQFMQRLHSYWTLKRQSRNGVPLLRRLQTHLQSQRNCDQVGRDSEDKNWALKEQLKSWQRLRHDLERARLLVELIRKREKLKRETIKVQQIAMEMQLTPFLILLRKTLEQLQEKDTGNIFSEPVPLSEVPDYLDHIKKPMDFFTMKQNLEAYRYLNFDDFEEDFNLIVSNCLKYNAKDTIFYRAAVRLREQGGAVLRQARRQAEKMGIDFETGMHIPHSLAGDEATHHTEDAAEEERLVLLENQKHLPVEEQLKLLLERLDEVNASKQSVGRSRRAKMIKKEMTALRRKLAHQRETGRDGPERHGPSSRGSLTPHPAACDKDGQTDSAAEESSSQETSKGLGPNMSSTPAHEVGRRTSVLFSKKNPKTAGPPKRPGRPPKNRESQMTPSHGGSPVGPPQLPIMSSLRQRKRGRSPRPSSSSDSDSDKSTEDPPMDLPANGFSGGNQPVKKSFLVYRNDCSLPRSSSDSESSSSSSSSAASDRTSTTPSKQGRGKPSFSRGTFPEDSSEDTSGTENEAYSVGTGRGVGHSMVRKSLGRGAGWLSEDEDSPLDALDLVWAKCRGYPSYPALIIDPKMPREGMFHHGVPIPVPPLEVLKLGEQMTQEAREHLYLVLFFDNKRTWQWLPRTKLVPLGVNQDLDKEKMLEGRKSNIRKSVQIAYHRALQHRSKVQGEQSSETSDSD

[2] = target: Fibroblast growth factor receptor 3 (Homo sapiens) (UniProt P22607); settings: Compound concentration 20.0 uM, Protein concentration 2.0 uM, Result type QC Liability
Sequence of Fibroblast growth factor receptor 3 (Homo sapiens) (P22607 23-806 limits assumed): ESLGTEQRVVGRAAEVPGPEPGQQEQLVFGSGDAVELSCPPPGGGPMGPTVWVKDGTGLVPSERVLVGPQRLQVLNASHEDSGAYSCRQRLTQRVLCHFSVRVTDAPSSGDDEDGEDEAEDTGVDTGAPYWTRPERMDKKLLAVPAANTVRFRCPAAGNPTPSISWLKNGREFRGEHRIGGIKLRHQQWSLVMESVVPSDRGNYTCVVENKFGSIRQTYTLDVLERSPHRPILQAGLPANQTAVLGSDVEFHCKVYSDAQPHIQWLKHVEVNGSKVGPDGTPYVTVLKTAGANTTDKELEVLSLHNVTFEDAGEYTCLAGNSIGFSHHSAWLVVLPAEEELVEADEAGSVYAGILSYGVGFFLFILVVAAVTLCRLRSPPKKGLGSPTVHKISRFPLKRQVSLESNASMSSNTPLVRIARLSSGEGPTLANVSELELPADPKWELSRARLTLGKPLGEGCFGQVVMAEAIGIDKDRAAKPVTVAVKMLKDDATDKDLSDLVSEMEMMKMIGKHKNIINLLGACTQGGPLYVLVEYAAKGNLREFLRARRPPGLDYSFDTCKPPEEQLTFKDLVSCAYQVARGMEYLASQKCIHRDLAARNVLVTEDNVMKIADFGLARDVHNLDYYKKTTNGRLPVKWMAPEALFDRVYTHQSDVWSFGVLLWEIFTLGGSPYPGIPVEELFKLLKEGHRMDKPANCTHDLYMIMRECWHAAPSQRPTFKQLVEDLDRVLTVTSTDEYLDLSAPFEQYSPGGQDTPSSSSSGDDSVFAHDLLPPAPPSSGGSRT
Description: Thermal Shift Assay. Domain: start/stop: P449-E759

Row | Compound | ΔTm [1] | ΔTm [2]
1 | CC(C)NC(=O)[C@H]1CCC[C@H]1Nc1nc(Nc2ccc(CN(C)C)cc2)ncc1Br | -1.84 °C | 7.35 °C
2 | C[C@@H](Oc1cc(-n2cnc3ccc(OC4CCN(C)CC4)cc32)sc1C(N)=O)c1ccccc1Cl | 0.36 °C | 3.37 °C
3 | CC(C)C(=O)N[C@@H]1CCN(C(=O)Nc2nc3c(s2)-c2nc(-c4ccccc4Cl)ncc2CC3)C1 | -1.39 °C | 3.87 °C
4 | Cn1cnc(Cn2ccc3ccc(CNCc4[nH]c5ccccc5c4[C@@H]4NC(=O)c5ccc(O)cc54)cc32)c1 | -1.61 °C | 0.85 °C
5 | COc1cc2c(cc1CC=C(C)C)C(=O)C[C@@H](c1ccc(O)cc1)O2 | 1.25 °C | 2.85 °C
6 | CCS(=O)(=O)c1cc2cc(C[C@](O)(CC(C)(C)c3ccc(F)cc3C(N)=O)C(F)(F)F)[nH]c2cn1 | -1.64 °C | 0.43 °C
7 | Cc1sc(C(=O)c2cncnc2N[C@@H]2C[C@H](COS(N)(=O)=O)[C@@H](O)C2)cc1[C@@H]1NCCc2ccc(Cl)cc21 | -2.76 °C | 0.36 °C
8 | N#CC[C@H](C1CCCC1)n1cc(-c2ncnc3[nH]ccc23)cn1 | 0.48 °C | 3.43 °C
9 | COc1cc(-c2cn[nH]c2)ccc1C(=O)Nc1ccc2c(c1)CCNCC2 | 0.1 °C | 0.93 °C
10 | Cn1ncc(NC(=O)c2nc(-c3c(F)cccc3F)sc2N)c1N1CC[C@@H](N)[C@H](F)CC1 | -0.66 °C | 0.81 °C
11 | CNC(=O)COc1cc2cc(Nc3nc(N4CCC(C(=O)N(C)C)CC4)ncc3Cl)cc(OC)c2n(C)c1=O | -2.49 °C | 0.39 °C
12 | CC1=C(C(=O)OCCO)[C@@H](c2ccc(C#N)cc2)NC(=O)N1c1cccc(C(F)(F)F)c1 | -1.72 °C | 0.42 °C
13 | CC(=O)Oc1ccc2c(c1)[C@@]1(C)CCC[C@](C)(C(=O)OC(=O)[C@@]3(C)CCC[C@]4(C)c5cc(OC(C)=O)ccc5CC[C@@H]34)[C@@H]1CC2 | -2.67 °C | 0.1 °C
14 | O=C(O)c1ccc(CN2C[C@@H]3C[C@H]2CN3Cc2ccc(Oc3ccc(-c4ncco4)cc3)cc2)cc1 | -2.16 °C | 0.44 °C
15 | CN1CCN(C(=O)Cc2ccc(N/C(=C3\C(=O)Nc4cc(Cl)ccc43)c3ccccc3)cc2)CC1 | -2.46 °C | 5.68 °C
16 | CN(C)CCCNc1ccnc(Nc2cccc(Cl)c2)n1 | -1.77 °C | 1.43 °C
17 | O=C(O)c1cc2cc(Cc3cccnc3)ccc2o1 | -2.16 °C | 0.96 °C
18 | CN1CCN(c2ccc(Nc3ncc4cc5n(c4n3)C3(CCCCC3)CNC5=O)nc2)CC1 | -1.56 °C | 0.83 °C
19 | O=C(NC[C@@H]1[C@H]2CN(C(=O)OCc3cc(C(F)(F)F)cc(C(F)(F)F)c3)C[C@@H]12)c1ccc2[nH]nnc2c1 | -0.49 °C | 1.51 °C
20 | Cc1cn([C@H](C)CC#N)c(=O)c2cc(Cn3nc(C(F)F)cc3Cl)nn12 | -1.09 °C | 0.78 °C

Row | Compound | ΔTm [1] | ΔTm [2]
21 | NC(=O)c1ccc(-c2nc(-c3ccc4c(c3)OCCO4)c(-c3ccccn3)[nH]2)cc1 | 0.84 °C | 1.37 °C
22 | CC(=O)N1CCC(c2ccc(C(=O)NC3=NCCN3)cc2C(F)(F)F)CC1 | -1.55 °C | 0.6 °C
23 | CCN1C(=O)c2cc(C)ccc2N(C)c2ncccc21 | -1.83 °C | 0.59 °C
24 | COc1cccc(-c2c(C)c(Cc3c(F)cccc3C(F)(F)F)c3n(c2=O)[C@@H]([C@@H](N)c2ccccc2)CS3)c1F | -4.1 °C | -2.84 °C
25 | COC(=O)c1ccc2c(c1)NC(=O)/C2=C(\Nc1ccc(-c2nccn2C)cc1)c1ccccc1 | -1.36 °C | 6.61 °C
26 | O=C(O)c1ccc2c(c1)nc(NCc1ccccc1)c1ncncc12 | -1.74 °C | 0.75 °C
27 | COc1ccc(-n2nc(C(F)(F)F)cc2-c2ccc(Cl)cc2)cc1 | -3.19 °C | 0.81 °C
28 | CC(C)(C#Cc1ccc(NC(=O)COc2ccccc2C(=O)c2ccccc2)c(Cl)c1)C(=O)O | -4.06 °C | 0.52 °C
29 | Cn1nc(C(=O)NCc2ccc(C(=O)O)cc2)cc1-c1ccc2[nH]ccc2c1 | -1.95 °C | 0.9 °C
30 | Cc1n[nH]c2ncc(C(=O)N3CCC[C@H]3c3ccc(Cl)cc3)cc12 | -1.04 °C | 0.54 °C
31 | CC(=O)c1c(C)c2cnc(Nc3ccc(N4CCN(CCCCNC(=O)COc5cccc6c5C(=O)N(C5CCC(=O)NC5=O)C6=O)CC4)cn3)nc2n(C2CCCC2)c1=O (stereo not given) | -1.22 °C | 0.48 °C
32 | O=C(O)CCCN1CCC[C@H]1COc1ccc(Oc2ccc(Cl)cc2)cc1 | -3.24 °C | 0.41 °C
33 | COP(=O)(CCC(N)C(=O)O)Oc1cccc(CC(=O)O)c1 (stereo not given) | -1.49 °C | 0.51 °C
34 | Nc1nccc(-c2c(-c3ccc(F)cc3)ncn2C2CCCCC2)n1 | -0.2 °C | 0.92 °C
35 | C=CC1C[C@]1(NC(=O)[C@@H]1C[C@@H](Oc2cc(-c3csc(NC(=O)C(C)C)n3)nc3c(Br)c(OC)ccc23)CN1C(=O)[C@@H](NC(=O)OC1CCCC1)C(C)(C)C)C(=O)O (stereo not given in full) | -2.59 °C | 1.41 °C
36 | COc1cc(C(=O)NCCOCCOCCOCCC(=O)Nc2cccc3c2C(=O)N(C2CCC(=O)NC2=O)C3=O)ccc1Nc1ncc(C(F)(F)F)c(Oc2cccc3c2C(=O)CC3)n1 (stereo not given) | -2.32 °C | -3.01 °C
37 | CC1CNCCc2c1nc1ccnn1c2N1CC(C(=O)N2CCC(C)(C)C2)C1 (stereo not given) | -1.64 °C | 0.56 °C
38 | N[C@@H]1CCCC[C@H]1Oc1ccc2ncc(-c3cc4ccccc4o3)n2n1 | -2.67 °C | 0.36 °C
39 | COc1cc(-c2cncc(-c3ccc(N4CCN(C(C)C)CC4)cc3)c2C)cc(F)c1C(=O)N1CCCC1 | -1.67 °C | 0.64 °C
40 | CN1CCN(C(=O)c2ccc3cc2OCCOCCNc2ccn4ncc-3c4n2)CC1 | -1.15 °C | 2.23 °C

Row | Compound | ΔTm [1] | ΔTm [2]
41 | CC(C)c1nc2c(c3c1[C@@H](c1ccc(C(F)(F)F)cc1)OC31CCOCC1)[C@@H](O)CC(C)(C)C2 | -3.83 °C | 0.98 °C
42 | O=C(Nc1cccc(Nc2nccc(Nc3cccc(C(F)(F)F)c3)n2)c1)C1CC1 | 0.79 °C | 3.3 °C
43 | CCS(=O)(=O)c1ccc(OC)c(Nc2ncc(-c3cccc(F)c3)o2)c1 | -1.63 °C | 3.6 °C
44 | CO[C@H](C)CN1CC[C@]2(C)c3cccc(O)c3C[C@H]1C2(C)C | -1.37 °C | 0.41 °C
45 | CC[C@@H](Nc1c(C#N)c(-c2ccc(-c3cccc(C)c3F)cc2)nc2cnccc12)C(=O)O | -0.66 °C | 0 °C
46 | c1ccc2c(c1)SCc1c-2[nH]c2ccccc12 | -9.42 °C | 0.81 °C
47 | CC1CN(CC(=O)N2CC(C)(C)c3nc(CO)c(Cc4ccc(F)cc4)cc32)C(CN2CCOCC2C)CN1 (stereo not given) | -1.08 °C | 0.81 °C
48 | Cc1nnc2n1-c1sc3c(c1C(c1ccccc1Cl)=NC2)C[C@@H](C(=O)N1CCOCC1)C3 | -1.96 °C | 0.58 °C
49 | Cc1c(CCC(=O)O)cccc1NC(=O)[C@@H](c1ccc(-c2cncc(Cl)c2)c(F)c1)C1CCCC1 | -4.03 °C | 0.03 °C
50 | Fc1ccc(-c2c3cccc(C(F)(F)F)c3nn2Cc2ccc(F)cc2Cl)cc1 | -2.25 °C | 0.67 °C
51 | O=C(NC1CCNCC1)c1n[nH]cc1NC(=O)c1c(Cl)cccc1Cl | -1.28 °C | 0.78 °C
52 | COc1cc2nc(C)nc(N[C@H](C)c3cc(N)cc(C(F)(F)F)c3)c2cc1O[C@H]1CCOC1 | -3.07 °C | 0.66 °C
53 | COc1ccc(CC[C@@H](OC(=O)[C@@H]2CCCCN2C(=O)[C@H](c2cc(OC)c(OC)c(OC)c2)C2CCCCC2)c2cccc(OCCN3CCOCC3)c2)cc1OC | -5.77 °C | -3.93 °C
54 | FC(F)c1cncc(-c2ccc3ncc4nnc(C5=CCCOCC5)n4c3c2)c1 | -2.16 °C | 0.51 °C
55 | C[S+]([O-])c1ccc(-c2nc(-c3cccc(I)c3)c(-c3ccncc3)[nH]2)cc1 (stereo not given) | -1.44 °C | -1.51 °C
56 | CN(C(=O)c1cnn2cccnc12)c1cc2c(cc1N1CCOCC1)C(=O)N(C[C@@H](F)C(C)(C)O)C2 | -1.49 °C | 1.38 °C
57 | Nc1nc(-c2nn(Cc3ccccc3F)c3ncccc23)ncc1C1CC1 | -2.28 °C | 1.14 °C
58 | Cc1ccc(NC(=O)c2ccc3c(c2)OCCO3)cc1NC(=O)c1ccc2nc(OCCN3CCCC3)ccc2c1 | -1.27 °C | 0.47 °C
59 | COc1ccc(-c2csc(NC(=O)[C@H]3CCCCN3S(=O)(=O)c3ccc(C)cc3)n2)cc1 | -0.84 °C | 0.16 °C
60 | O=C(Nc1ccc(OC(F)(F)Cl)cc1)c1cnc(N2CC[C@@H](O)C2)c(-c2cc[nH]n2)c1 | -3.77 °C | 0.66 °C
